The values that follow come from article PMC9603901, “Therapeutic Potential of Antimicrobial Peptide PN5 against Multidrug-Resistant E. coli and Anti-Inflammatory Activity in a Septic Mouse Model” (Microbiology Spectrum, 2022).

In brackets after ≈: the same amount, converted by molar mass. Like-named read-outs stand apart in the source and are kept apart here. Where no end group is shown, it is not given here. Where only a bound is given, the exact number is not on record here.

Experiment [1] deals with ASEC 18 biofilm. Particulars: crystal violet A595, 24 h, three independent experiments. As to the method:
(§1) Crystal violet staining was performed to determine the degree of biofilm formation by the E. coli 25922, S. aureus 25923, and ASEC strains. E. coli 25922 and S. aureus 25923 were cultured overnight in LB and TSB media with aeration at 180 rpm, respectively. Bacterial suspensions with 0.2% glucose (5 × 10^5 CFU mL^−1) were added to a 96-well plate (30096, surface treatment; SPL Life Sciences) and incubated for 24 h at 37°C. The supernatant was removed and fixed with 100% methanol. Next, 100 μL of crystal violet was added to the plate and incubated to dye the cells for 1 h, followed by rinsing the cells three times with distilled water (dH2O). After the crystal violet was dissolved with 95% ethanol, the mass of biofilm formation at 595 nm was measured using a Versa Max microplate reader (Molecular Devices). The inhibitory effect of PN5 against biofilm formed by E. coli 25922, S. aureus 25923, and three MDR E. coli strains (ASEC 2, 16, and 18) were determined. These cells were cultured overnight in LB and TSB media. Bacterial suspensions (5 × 10^5 CFU mL^−1) containing 0.2% glucose were added to 96-well plates and PN5 was serially diluted to a final concentration of 32 μM. The minimal biofilm inhibitory concentration (MBIC) was determined in three independent experiments. The percentage of biofilm formation was measured using the equation (A595 of treated biofilm/A595 of untreated biofilm) × 100. Similarly, the MDR ASEC 1 to 19 strains were cultured overnight in LB medium and seeded into 96-well plates with medium containing 0.2% glucose at 5 × 10^5 CFU mL^−1 of the bacterial suspension. Biofilm staining was performed as described above. SYTO 9 (6 μM) fluorescence in LIVE/DEAD BacLight was used to visualize the degree of biofilm formation. […] After 24 h, the culture supernatant of the peptide and bacteria was discarded, and the pellet was fixed with 100% methanol. A fluorescence mixture of SYTO 9 and propidium iodide was then added to each well, and the fluorescence was evaluated with an EVOS FL color imaging system (Thermo Fisher Scientific) with a 4× objective ([22]).

Experiment [2] has as its system ASEC 2 biofilm. Particulars: for biofilm formation visualized with SYTO 9: antibiotics at 32 μM, 24 h, SYTO 9 staining (Fig. 3F); for MBIC50: crystal violet A595, 24 h, three independent experiments. As to the method:
as §1

Experiment [3] has as its system ASEC 16 biofilm. Particulars: crystal violet A595, 24 h, three independent experiments. As to the method: as §1
Experiment [4] has as its system MDR E. coli ASEC 1. Briefly: microbe, parasite or virus in culture. In kind it is cell-based, Escherichia coli. Particulars: microdilution, LB, 18 to 24 h, 37°C, three independent experiments. As for the experimental part:
Bacterial cells were cultured at 37°C in the appropriate culture media with shaking (180 rpm). Luria-Bertani broth (LB) (244620; BD Difco) was used for E. coli ATCC 25922, ASEC strains, and B. subtilis KCTC 2217. Nutrient broth (NB) (234000; BD Difco) was used for P. aeruginosa ATCC 27853, S. Typhimurium KCTC 1926, and A. baumannii KCTC 2508. Tryptic soy broth (TSB) (211825; BD Difco) was used for S. aureus ATCC 25923. Finally, brain heart infusion (BHI) (237500; BD Difco) was used for L. monocytogenes KCTC 3710. The antimicrobial activity of each peptide was determined using microdilution assays. To this end, 2-fold serial dilution series of each peptide (from 1 to 64 μM) were added to duplicate media with 10 mM sodium phosphate buffer (pH 7.4). Fifty microliters of the peptide and antibiotic solution was added to each well of a 96-well plate (32096, surface nontreatment; SPL Life Sciences). Then, 50 μL of 2 × 10^5 CFU mL^−1 of bacteria was added to each well, and the samples were incubated for 18 to 24 h without shaking at 37°C.

Experiment [5] concerns MDR E. coli ASEC 1. Further details: method as in Asan hospital; key to susceptibility category: S: susceptible; R: resistant; I: intermediate. Particulars: ref Asan hospital, cited from earlier work; for MIC: ASEC 1 (carbapenemase NDM-1), resistance information of clinical isolate; for susceptibility category: ASEC 1.
Experiment [6] has as its system MDR E. coli ASEC 17. Further details: method as in Asan hospital; key to susceptibility category: S: susceptible; R: resistant; I: intermediate. Particulars: ref Asan hospital, cited from earlier work; for MIC: ASEC 17 (AmpC), resistance information of clinical isolate; for susceptibility category: ASEC 17.
For experiment [7], the system named is MDR E. coli ASEC 19. Further details: method as in Asan hospital; key to susceptibility category: S: susceptible; R: resistant; I: intermediate. Particulars: ref Asan hospital, cited from earlier work; for MIC: ASEC 19 (AmpC), resistance information of clinical isolate; for susceptibility category: ASEC 19.
The subject of experiment [8] is MDR E. coli ASEC 7. Further details: method as in Asan hospital; key to susceptibility category: S: susceptible; R: resistant; I: intermediate. Particulars: ref Asan hospital, cited from earlier work; for MIC: ASEC 7 (ESBL), resistance information of clinical isolate; for susceptibility category: ASEC 7.
For experiment [9], the system named is MDR E. coli ASEC 18. Further details: method as in Asan hospital; key to susceptibility category: S: susceptible; R: resistant; I: intermediate. Particulars: ref Asan hospital, cited from earlier work; for MIC: ASEC 18 (AmpC), resistance information of clinical isolate; for susceptibility category: ASEC 18.
In experiment [10] the test system is MDR E. coli ASEC 14. Further details: method as in Asan hospital; key to susceptibility category: S: susceptible; R: resistant; I: intermediate. Particulars: ref Asan hospital, cited from earlier work; for MIC: ASEC 14 (AmpC), resistance information of clinical isolate; for susceptibility category: ASEC 14.
In experiment [11] the test system is MDR E. coli ASEC 16. Further details: method as in Asan hospital; key to susceptibility category: S: susceptible; R: resistant; I: intermediate. Particulars: ref Asan hospital, cited from earlier work; for MIC: ASEC 16 (AmpC), resistance information of clinical isolate; for susceptibility category: ASEC 16.
Experiment [12] relates to MDR E. coli ASEC 9. Further details: method as in Asan hospital; key to susceptibility category: S: susceptible; R: resistant; I: intermediate. Particulars: ref Asan hospital, cited from earlier work; for MIC: ASEC 9 (ESBL), resistance information of clinical isolate; for susceptibility category: ASEC 9.
Experiment [13] relates to MDR E. coli ASEC 11. Further details: method as in Asan hospital; key to susceptibility category: S: susceptible; R: resistant; I: intermediate. Particulars: ref Asan hospital, cited from earlier work; for MIC: ASEC 11 (ESBL), resistance information of clinical isolate; for susceptibility category: ASEC 11.
[14] abbreviates: Escherichia coli, read-out: MIC.

Regarding `CO/N=C(\C(=O)N[C@@H]1C(=O)N2C(C(=O)O)=C(COC(C)=O)CS[C@H]12)c1csc(N)n1` [Cefotaxime], the MBIC50 is recorded as >128 (>58.3) μM in [1], >128 (>58.3) μM in [2] and 128 (58.3) μM in experiment [3]. Moreover, the “biofilm formation visualized with SYTO 9” value in experiment [2] is “did not inhibit biofilm formation”. Besides, the MIC in experiment [4] (setting [14]) is more than 32 µM; in experiment [5], more than 32 µg/mL; in experiment [6], more than 32 µg/mL; in [7] it was more than 32 µg/mL; in [8], more than 32 µg/mL; in experiment [9], 32 µg/mL (≈ 70.3 µM). In addition, the MIC in [10], in experiment [11], in [12] and in experiment [13] was more than 32 µg/mL in each case. The susceptibility category result in experiment [5], in experiment [6], in experiment [7], in experiment [8], in [9] and in experiment [10] was “R” throughout. Moreover, the susceptibility category entry in [11], in experiment [12] and in [13] was “R” throughout.

As for `CC(C)(O/N=C(\C(=O)N[C@@H]1C(=O)N2C(C(=O)[O-])=C(C[n+]3ccccc3)CS[C@H]12)c1csc(N)n1)C(=O)O` [Ceftazidime], the MBIC50 in experiment [1], in experiment [2] and in experiment [3] was >128 (>69.95) μM in each case. Besides, the “biofilm formation visualized with SYTO 9” value in [2] was “did not inhibit biofilm formation”. Further, the MIC is more than 32 µM in [4] (setting [14]); more than 16 µg/mL in [5]; more than 16 µg/mL in experiment [6]; more than 16 µg/mL in experiment [7]; more than 16 µg/mL in experiment [8]; more than 16 µg/mL in [9]. Besides, the MIC in [10], in [11], in experiment [12] and in experiment [13] was more than 16 µg/mL each time. In addition, the susceptibility category result in experiment [5], in experiment [6], in experiment [7], in [8], in experiment [9] and in experiment [10] was “R” each time. In addition, the susceptibility category result in experiment [11], in experiment [12] and in experiment [13] was “R” each time.

For `C[C@@H](O)[C@H]1C(=O)N2C(C(=O)O)=C(S[C@@H]3CN[C@H](C(=O)N(C)C)C3)[C@H](C)[C@H]12` [Meropenem], the values for the MBIC50 in experiment [1], in experiment [2] and in experiment [3] were <2 (<0.77) μM, 64 (24.54) μM and <2 (<0.77) μM, respectively. Also, the “biofilm formation visualized with SYTO 9” value in experiment [2] is given as “did not inhibit biofilm formation”. Also, the MIC is 1 µM (≈ 0.383 µg/mL) in [4] (setting [14]); 8 µg/mL (≈ 20.9 µM) in [5]; “<= 1 μg mL-1” in experiment [6]; “<= 1 μg mL-1” in [7]; “<= 1 μg mL-1” in experiment [8]; “<= 1 μg mL-1” in experiment [9]. Moreover, the MIC in experiment [10] was 8 µg/mL (≈ 20.9 µM); in experiment [11], “<= 1 μg mL-1”; in experiment [12], “<= 1 μg mL-1”; in [13], “<= 1 μg mL-1”. In addition, the susceptibility category result is “R” in [5]; “S” in experiment [6]; “S” in [7]; “S” in [8]; “S” in experiment [9]; “R” in experiment [10]. The susceptibility category result in [11], in [12] and in experiment [13] was “S” throughout.

With FKFLARTGKFL-NH2 [PN5], the MBIC50 in experiment [1] was 16 (21.22) μM; in [2], 8 (10.61) μM; in [3] it was 16 (21.22) μM. Moreover, the MIC in experiment [4] is 8 (10.61) μM.
